According to the supplement of paper PMC10307832:

Legend:
Experiment in all cases: relative viability (nuclei count vs DMSO), 5 days (fraction); higher = more cells survive
[1] = test system: LC-2-ad
Procedure, shortened: (§1)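 Lung cancer cell lines, seeded in 1536-well plates, were treated the following day by pin tool with a single drug or with five library-drug doses (not always all listed) in √10 steps on top of a fixed anchor-drug dose. Cells were fixed and nuclei stained in one step after 5 days, and nuclei were counted. Relative viability is the nuclei count for treated wells divided by that for vehicle wells, reported as medians of duplicate plates.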

[2] = test system: EKVX
Procedure, shortened: as §1

[3] = test system: EMC-BAC-2
Procedure, shortened: as §1

[4] = test system: NCI-H1793
Procedure, shortened: as §1

[5] = test system: COR-L 105
Procedure, shortened: as §1

[6] = test system: NCI-H2126
Procedure, shortened: as §1

[7] = test system: NCI-H1755
Procedure, shortened: as §1

[8] = test system: NCI-H596
Procedure, shortened: as §1

[9] = test system: H3255
Procedure, shortened: as §1

[10] = test system: NCI-H2009
Procedure, shortened: as §1

[11] = test system: PC-14
Procedure, shortened: as §1

[12] = test system: SW 900
Procedure, shortened: as §1

[13] = test system: UMC-11
Procedure, shortened: as §1

[14] = test system: LCLC-103H
Procedure, shortened: as §1

[15] = test system: NCI-H2087
Procedure, shortened: as §1

[16] = test system: NCI-H1648
Procedure, shortened: as §1

[17] = test system: NCI-H1395
Procedure, shortened: as §1

[18] = test system: NCI-H1651
Procedure, shortened: as §1

[19] = test system: CAL-12T
Procedure, shortened: as §1

[20] = test system: NCI-H2023
Procedure, shortened: as §1

[21] = test system: NCI-H661
Procedure, shortened: as §1

[22] = test system: RERF-LC-KJ
Procedure, shortened: as §1

**Q.** Which relative viability ([1]; first compound 0.08 µM) does the source give for C=C1C(=O)O[C@@H](CCCCCCCC)[C@@H]1C(=O)O [C-75] + CC(=O)Nc1cccc(-n2c(=O)n(C3CC3)c(=O)c3c(Nc4ccc(I)cc4F)n(C)c(=O)c(C)c32)c1 [Trametinib] (partner 0.02 µM) here?
**A.** 0.883

**Q.** What about the relative viability ([1]; first compound 0.253 µM) of the same molecule?
**A.** 0.954

**Q.** And the relative viability ([1]; first compound 0.8 µM)?
**A.** 0.832

**Q.** What about the relative viability ([1]; first compound 2.53 µM) of the same molecule?
**A.** 0.861

**Q.** What about the relative viability ([1]; first compound 8 µM) of the same molecule?
**A.** 0.926

**Q.** What about the relative viability ([2]; first compound 0.08 µM) of the same molecule?
**A.** 0.344

**Q.** What about the relative viability ([2]; first compound 0.253 µM) of the same molecule?
**A.** 0.263

**Q.** And the relative viability ([2]; first compound 0.8 µM)?
**A.** 0.31

**Q.** And the relative viability ([2]; first compound 8 µM)?
**A.** 0.355

**Q.** And the relative viability ([3]; first compound 0.08 µM)?
**A.** 0.872

**Q.** What about the relative viability ([3]; first compound 0.253 µM) of the same molecule?
**A.** 0.987

**Q.** What about the relative viability ([3]; first compound 0.8 µM) of the same molecule?
**A.** 0.853

**Q.** What about the relative viability ([3]; first compound 2.53 µM) of the same molecule?
**A.** 0.803

**Q.** And the relative viability ([3]; first compound 8 µM)?
**A.** 0.89

**Q.** And the relative viability ([4]; first compound 0.08 µM)?
**A.** 0.356

**Q.** What about the relative viability ([4]; first compound 0.253 µM) of the same molecule?
**A.** 0.509

**Q.** And the relative viability ([4]; first compound 2.53 µM)?
**A.** 0.356

**Q.** And the relative viability ([4]; first compound 8 µM)?
**A.** 0.409

**Q.** What about the relative viability ([5]; first compound 0.08 µM) of the same molecule?
**A.** 0.425

**Q.** What about the relative viability ([5]; first compound 0.253 µM) of the same molecule?
**A.** 0.458

**Q.** And the relative viability ([5]; first compound 0.8 µM)?
**A.** 0.428

**Q.** And the relative viability ([5]; first compound 2.53 µM)?
**A.** 0.427

**Q.** And the relative viability ([5]; first compound 8 µM)?
**A.** 0.497

**Q.** And the relative viability ([6]; first compound 0.08 µM)?
**A.** 0.587

**Q.** And the relative viability ([6]; first compound 0.253 µM)?
**A.** 0.587

**Q.** And the relative viability ([6]; first compound 0.8 µM)?
**A.** 0.581

**Q.** And the relative viability ([6]; first compound 2.53 µM)?
**A.** 0.553

**Q.** And the relative viability ([6]; first compound 8 µM)?
**A.** 0.502

**Q.** And the relative viability ([7]; first compound 0.08 µM)?
**A.** 0.763

**Q.** What about the relative viability ([7]; first compound 0.253 µM) of the same molecule?
**A.** 0.748

**Q.** What about the relative viability ([7]; first compound 0.8 µM) of the same molecule?
**A.** 0.76

**Q.** What about the relative viability ([7]; first compound 2.53 µM) of the same molecule?
**A.** 0.677

**Q.** And the relative viability ([7]; first compound 8 µM)?
**A.** 0.702

**Q.** And the relative viability ([8]; first compound 0.08 µM)?
**A.** 1.02

**Q.** What about the relative viability ([8]; first compound 0.253 µM) of the same molecule?
**A.** 0.837

**Q.** And the relative viability ([8]; first compound 0.8 µM)?
**A.** 0.815

**Q.** And the relative viability ([8]; first compound 2.53 µM)?
**A.** 0.722

**Q.** And the relative viability ([8]; first compound 8 µM)?
**A.** 0.744

**Q.** What about the relative viability ([9]; first compound 0.08 µM) of the same molecule?
**A.** 0.66

**Q.** What about the relative viability ([9]; first compound 0.253 µM) of the same molecule?
**A.** 0.613

**Q.** And the relative viability ([9]; first compound 0.8 µM)?
**A.** 0.647

**Q.** What about the relative viability ([9]; first compound 2.53 µM) of the same molecule?
**A.** 0.543

**Q.** And the relative viability ([9]; first compound 8 µM)?
**A.** 0.666

**Q.** And the relative viability ([10]; first compound 0.08 µM)?
**A.** 0.277

**Q.** And the relative viability ([10]; first compound 0.253 µM)?
**A.** 0.249

**Q.** What about the relative viability ([10]; first compound 0.8 µM) of the same molecule?
**A.** 0.282

**Q.** What about the relative viability ([10]; first compound 2.53 µM) of the same molecule?
**A.** 0.262

**Q.** What about the relative viability ([10]; first compound 8 µM) of the same molecule?
**A.** 0.332

**Q.** What about the relative viability ([11]; first compound 0.08 µM) of the same molecule?
**A.** 0.902

**Q.** What about the relative viability ([11]; first compound 0.253 µM) of the same molecule?
**A.** 0.811

**Q.** And the relative viability ([11]; first compound 0.8 µM)?
**A.** 0.724

**Q.** What about the relative viability ([11]; first compound 2.53 µM) of the same molecule?
**A.** 0.78

**Q.** And the relative viability ([11]; first compound 8 µM)?
**A.** 0.731

**Q.** What about the relative viability ([12]; first compound 0.08 µM) of the same molecule?
**A.** 1.01

**Q.** What about the relative viability ([12]; first compound 0.253 µM) of the same molecule?
**A.** 0.936

**Q.** What about the relative viability ([12]; first compound 0.8 µM) of the same molecule?
**A.** 0.848

**Q.** What about the relative viability ([12]; first compound 2.53 µM) of the same molecule?
**A.** 0.71

**Q.** What about the relative viability ([12]; first compound 8 µM) of the same molecule?
**A.** 0.829

**Q.** What about the relative viability ([13]; first compound 0.08 µM) of the same molecule?
**A.** 0.723

**Q.** And the relative viability ([13]; first compound 0.253 µM)?
**A.** 0.841

**Q.** What about the relative viability ([13]; first compound 0.8 µM) of the same molecule?
**A.** 0.659

**Q.** And the relative viability ([13]; first compound 2.53 µM)?
**A.** 0.581

**Q.** And the relative viability ([13]; first compound 8 µM)?
**A.** 0.526

**Q.** And the relative viability ([14]; first compound 0.08 µM)?
**A.** 0.64

**Q.** What about the relative viability ([14]; first compound 0.253 µM) of the same molecule?
**A.** 0.703

**Q.** And the relative viability ([14]; first compound 0.8 µM)?
**A.** 0.624

**Q.** What about the relative viability ([14]; first compound 2.53 µM) of the same molecule?
**A.** 0.547

**Q.** And the relative viability ([14]; first compound 8 µM)?
**A.** 0.721

**Q.** What about the relative viability ([15]; first compound 0.08 µM) of the same molecule?
**A.** 0.247

**Q.** And the relative viability ([15]; first compound 0.253 µM)?
**A.** 0.24

**Q.** What about the relative viability ([15]; first compound 0.8 µM) of the same molecule?
**A.** 0.179

**Q.** And the relative viability ([15]; first compound 2.53 µM)?
**A.** 0.16

**Q.** What about the relative viability ([15]; first compound 8 µM) of the same molecule?
**A.** 0.212

**Q.** And the relative viability ([16]; first compound 0.08 µM)?
**A.** 0.435

**Q.** What about the relative viability ([16]; first compound 0.253 µM) of the same molecule?
**A.** 0.658

**Q.** And the relative viability ([16]; first compound 0.8 µM)?
**A.** 0.447

**Q.** And the relative viability ([16]; first compound 8 µM)?
**A.** 0.443

**Q.** And the relative viability ([17]; first compound 0.08 µM)?
**A.** 0.973

**Q.** What about the relative viability ([17]; first compound 0.253 µM) of the same molecule?
**A.** 1.05

**Q.** What about the relative viability ([17]; first compound 2.53 µM) of the same molecule?
**A.** 1.03

**Q.** And the relative viability ([17]; first compound 8 µM)?
**A.** 0.933

**Q.** And the relative viability ([18]; first compound 0.08 µM)?
**A.** 0.815

**Q.** What about the relative viability ([18]; first compound 0.253 µM) of the same molecule?
**A.** 0.802

**Q.** What about the relative viability ([18]; first compound 0.8 µM) of the same molecule?
**A.** 0.862

**Q.** What about the relative viability ([18]; first compound 2.53 µM) of the same molecule?
**A.** 0.515

**Q.** What about the relative viability ([18]; first compound 8 µM) of the same molecule?
**A.** 0.892

**Q.** What about the relative viability ([19]; first compound 0.08 µM) of the same molecule?
**A.** 0.373

**Q.** What about the relative viability ([19]; first compound 0.253 µM) of the same molecule?
**A.** 0.455

**Q.** What about the relative viability ([19]; first compound 0.8 µM) of the same molecule?
**A.** 0.31

**Q.** What about the relative viability ([19]; first compound 2.53 µM) of the same molecule?
**A.** 0.301

**Q.** And the relative viability ([19]; first compound 8 µM)?
**A.** 0.313

**Q.** What about the relative viability ([20]; first compound 0.08 µM) of the same molecule?
**A.** 0.527

**Q.** And the relative viability ([20]; first compound 0.253 µM)?
**A.** 0.662

**Q.** And the relative viability ([20]; first compound 0.8 µM)?
**A.** 0.531

**Q.** And the relative viability ([20]; first compound 2.53 µM)?
**A.** 0.209

**Q.** What about the relative viability ([20]; first compound 8 µM) of the same molecule?
**A.** 0.483

**Q.** And the relative viability ([21]; first compound 0.08 µM)?
**A.** 0.524

**Q.** What about the relative viability ([21]; first compound 0.253 µM) of the same molecule?
**A.** 0.612

**Q.** What about the relative viability ([21]; first compound 0.8 µM) of the same molecule?
**A.** 0.516

**Q.** And the relative viability ([21]; first compound 2.53 µM)?
**A.** 0.429

**Q.** What about the relative viability ([21]; first compound 8 µM) of the same molecule?
**A.** 0.458

**Q.** And the relative viability ([22]; first compound 0.08 µM)?
**A.** 0.874

**Q.** What about the relative viability ([22]; first compound 0.253 µM) of the same molecule?
**A.** 0.945

**Q.** And the relative viability ([22]; first compound 0.8 µM)?
**A.** 0.925

**Q.** What about the relative viability ([22]; first compound 2.53 µM) of the same molecule?
**A.** 0.918

**Q.** And the relative viability ([22]; first compound 8 µM)?
**A.** 0.866
